According to paper PMC12087874, “Biaryl Phosphates and Phosphonates as Selective Inhibitors of the Transcription Factor STAT4” (Angewandte Chemie (International Ed. in English), 2025):

Tests used:
STAT4 = target: T1, STAT4 (Homo sapiens, UniProt Q14765); experiment: Competitive fluorescence polarization (FP) assay, STAT4 SH2 domain; type: binding; settings: for Ki / IC50: FP assay, mean ± SD, n = 3; for Ki: tracer 5-carboxyfluorescein-GpYLPQNID-OH, Ki derived from IC50, read-out: STAT4 K i
T1 sequence (Q14765 1-748): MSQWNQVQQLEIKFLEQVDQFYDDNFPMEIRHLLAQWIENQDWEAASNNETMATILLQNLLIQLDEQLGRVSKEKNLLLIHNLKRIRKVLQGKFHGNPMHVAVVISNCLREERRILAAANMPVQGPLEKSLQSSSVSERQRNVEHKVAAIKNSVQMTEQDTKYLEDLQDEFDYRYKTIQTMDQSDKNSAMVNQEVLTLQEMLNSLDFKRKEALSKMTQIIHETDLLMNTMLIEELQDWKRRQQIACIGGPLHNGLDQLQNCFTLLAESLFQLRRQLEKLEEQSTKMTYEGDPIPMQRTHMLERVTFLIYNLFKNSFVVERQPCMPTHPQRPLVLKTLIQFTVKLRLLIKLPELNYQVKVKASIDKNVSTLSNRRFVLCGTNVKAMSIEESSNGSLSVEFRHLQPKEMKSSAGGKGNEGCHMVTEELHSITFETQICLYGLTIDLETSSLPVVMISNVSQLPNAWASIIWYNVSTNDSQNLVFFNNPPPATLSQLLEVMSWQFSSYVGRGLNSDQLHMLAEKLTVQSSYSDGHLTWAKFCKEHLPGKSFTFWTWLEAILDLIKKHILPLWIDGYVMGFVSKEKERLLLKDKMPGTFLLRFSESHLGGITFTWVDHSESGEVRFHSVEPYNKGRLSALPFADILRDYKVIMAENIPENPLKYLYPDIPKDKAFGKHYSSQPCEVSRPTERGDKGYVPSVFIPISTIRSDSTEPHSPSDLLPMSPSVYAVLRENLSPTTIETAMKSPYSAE
Procedure: (§1) Fluorescence polarization assays
(§2) Competitive fluorescence polarization assays, which measure the abilities of test compounds (dissolved in DMSO) to displace a fluorescent-labeled peptide from the SH2 domain of a STAT protein, were carried out essentially as described. Proteins were used at the following final concentrations: 23 nM or 28 nM for STAT4; between 56 nM and 91 nM for STAT1; 107 nM or 110 nM for STAT3; between 131 nM and 177 nM for STAT5a; between 62 nM and 85 nM for STAT5b; and 101 nM or 106 nM for STAT6. These concentrations represent the approximate […]
(§3) dissociation constant for peptide binding of the respective protein batches used in the assays.
(§4) The following peptides were used: 5-carboxyfluorescein-GpYLPQNID-OH for STAT4; 5-carboxyfluorescein-GpYDKPHVL for STAT1; 5-carboxyfluorescein-GpYLPQTV-NH2 for STAT3; 5-carboxyfluorescein-GpYLVLDKW for STAT5a/b, and 5-carboxyfluorescein- […]
(§5) Gp[…]-OH for STAT6. All peptides were used at a final concentration of 10 nM. The buffer consisted of 10 mM Tris (pH 8.0), 50 mM NaCl, 1 mM EDTA, 1 mM DTT, 0 .1 % Nonidet P-40 substitute, and 2 % DMSO. After incubation of protein and test compound for 1 h at room temperature, the fluorescent -labeled peptide was added. Samples were transferred to 384 - well microtiter plates and fluorescence polarization was read after an additional 60 min of incubation time. Measurements were performed in triplicate. Percent binding was calculated based on a logarithmic curve fit using OriginPro 8G software. IC 50 values were converted to Ki-values via the published equation[3] using the corresponding Excel spread sheet […]
(§6) https://websites.umich.edu/~shaomengwanglab/software/calc_ki/index.html .
(§7) Error bars represent standard deviations. Ligand efficiencies (LE) were calculated by the formula LE = -1,37 x log Ki / number of non-hydrogen atoms.[4] […]

STAT1 = target: T2, STAT1 (Homo sapiens, UniProt P42224); experiment: Competitive fluorescence polarization (FP) assay, STAT1 SH2 domain; type: binding; settings: for IC50: mean ± SD, n = 3; for Ki: tracer 5-carboxyfluorescein-GpYDKPHVL, Ki derived from IC50
T2 sequence (P42224 1-750): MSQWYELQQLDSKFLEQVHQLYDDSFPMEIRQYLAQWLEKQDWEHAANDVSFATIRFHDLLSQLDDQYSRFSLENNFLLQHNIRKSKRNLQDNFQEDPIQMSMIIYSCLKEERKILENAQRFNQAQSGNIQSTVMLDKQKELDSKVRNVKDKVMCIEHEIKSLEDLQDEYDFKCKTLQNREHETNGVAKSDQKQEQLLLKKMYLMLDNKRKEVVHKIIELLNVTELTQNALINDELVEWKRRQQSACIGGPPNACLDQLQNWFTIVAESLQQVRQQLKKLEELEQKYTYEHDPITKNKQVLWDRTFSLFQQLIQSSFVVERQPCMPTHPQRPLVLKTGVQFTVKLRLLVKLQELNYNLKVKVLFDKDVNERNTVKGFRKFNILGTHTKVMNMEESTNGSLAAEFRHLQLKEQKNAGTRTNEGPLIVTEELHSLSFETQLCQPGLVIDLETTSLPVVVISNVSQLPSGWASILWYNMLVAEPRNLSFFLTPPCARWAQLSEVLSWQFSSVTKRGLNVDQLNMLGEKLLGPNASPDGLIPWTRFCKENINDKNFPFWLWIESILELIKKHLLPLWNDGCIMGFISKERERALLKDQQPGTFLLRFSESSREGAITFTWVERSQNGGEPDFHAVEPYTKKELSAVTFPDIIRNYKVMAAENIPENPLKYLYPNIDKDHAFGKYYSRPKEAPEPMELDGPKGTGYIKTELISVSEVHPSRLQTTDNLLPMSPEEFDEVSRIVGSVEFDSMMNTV
Procedure: as §1, §2, §3, §4, §5, §6, §7

| ligand efficiency (STAT4; LE = -1,37 x log Ki / number of non-hydrogen atoms, STAT4 Ki) [kcal/mol] | SMILES | Ki (STAT4) [µM] | IC50 (STAT4) [µM] | selectivity for STAT4 over the SH2 domain of STAT5a (STAT4; FP assays, Ki ratio) [fold] | selectivity for STAT4 over the SH2 domain of STAT5b (STAT4; FP assays, Ki ratio) [fold] | selectivity for STAT4 over the SH2 domains of STAT1, STAT3, and STAT6 (STAT4; FP assays, Ki ratio) | IC50 (STAT1) [µM] | Ki (STAT1) [µM] | selectivity for STAT4 over other STAT proteins (STAT4; FP assays) |
| --- | --- | --- | --- | --- | --- | --- | --- | --- | --- |
|  | O=P(O)(O)Oc1ccc(-c2ccccc2)cc1 [Compound 1, para‐biphenyl phosphate] | 1.1 ± 0.1 | 2.3 ± 0.2 | ~20 | ~40 | 7–8 fold | 16 ± 3 | 8.1 ± 1.4 |  |
|  | O=P(O)(O)Oc1ccc(-c2ccc3ccccc3c2)cc1 [Compound 6g] | 0.44 ± 0.09 | 0.95 ± 0.19 |  |  |  | 22 ± 2 | 11 ± 1 |  |
|  | O=P(O)(O)Oc1ccc(-c2ccccc2)cc1F [Compound 6h] | 0.56 ± 0.08 | 1.2 ± 0.2 |  |  |  | 13 ± 1 | 6.3 ± 0.6 |  |
|  | O=P(O)(O)Oc1ccc(-c2ccc3ccccc3c2)cc1F [Compound 6m] | 0.35 ± 0.01 | 0.76 ± 0.01 |  |  |  | 7.8 ± 0.6 | 3.8 ± 0.3 | 10–70 fold |
|  | O=P(O)(O)C(F)(F)c1ccc(-c2ccc3ccccc3c2)cc1F [Compound 8a] | 4 ± 0.5 | 8.5 ± 1 |  |  |  | 63 ± 3 | 36 ± 2 |  |
| 0.39 | Cc1cc(-c2ccc(C(F)(F)P(=O)(O)O)c(F)c2)cs1 [Compound 8k] | 1.7 ± 0.2 | 3.7 ± 0.4 |  |  |  | 48 ± 4 | 24 ± 2 |  |
